Where a SMILES comes first, the peptide text is derived from it. Bridges are numbered along the chain shown (N, C = ends). [ ]: non-standard residue; d: D form. Hyp = O=C(O)[C@@H]1C[C@@H](O)CN1; Pen = CC(C)(S)[C@H](N)C(=O)O; dDab = NCC[C@@H](N)C(=O)O; Dab = NCC[C@H](N)C(=O)O
Legend:
[1] = tested on: Klebsiella pneumoniae SSI3010; conditions: SSI3010
How it was run: (§1)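 Standardized inocula (0.5 McFarland in saline, then diluted in MHII broth to approximately 5×10^5 CFU/mL) were exposed to two-fold dilution series of each peptide in the presence of polysorbate 80 (0.002% final).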

[2] = tested on: Escherichia coli ATCC 25922; conditions: ATCC 25922
How it was run: as §1

[3] = tested on: Escherichia coli MCR-1 Af 45; conditions: Mueller-Hinton broth II, no visible growth after 18-20 hours at 35° C.
How it was run: as §1

[4] = tested on: human red blood cells (hRBC); type: cell-based; conditions: red cells of human, 1 h, 0.2 g/L
How it was run: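 Percent lysis was derived from supernatant absorbance at 540 nm relative to full lysis by 2.5% Triton X-100 (PBS defines 0%). Compounds, 200 μg/mL, were exposed for 1 h at 37° C to a 20% (v/v) suspension of washed human red cells.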

| Structure (SMILES) | Klebsiella pneumoniae SSI3010 MIC [1] [µg/mL] | Escherichia coli ATCC 25922 MIC [2] [µg/mL] | Escherichia coli MCR-1 Af 45 MIC [3] [µg/mL] | Hemolysis at 0.2 g/L [4] [%] |
| --- | --- | --- | --- | --- |
| CC[C@H](C)[C@@H]1NC(=O)[C@@H](NC(=O)[C@H](Cc2ccc(O)cc2)NC(=O)[C@@H](NC(=O)[C@@H](NC(=O)[C@@H]2C[C@@H](O)CN2C(=O)[C@@H](N)C(C)C)[C@@H](C)CC)[C@@H](C)O)C(C)(C)SSC[C@@H](C(=O)N[C@@H](CCN)C(=O)N[C@@H](CCCNC(=N)N)C(=O)N[C@@H](Cc2ccc(O)cc2)C(=O)O)NC(=O)[C@H](CCCN)NC(=O)[C@@H](CCN)NC(=O)[C@H]([C@@H](C)O)NC(=O)[C@H](CCN)NC(=O)[C@H](CCCNC(=N)N)NC1=O [Example 123, Val-Hyp-Ile-Thr-Tyr-Pen-Ile-Arg-Dab-Thr-^DDab-Orn-Cys-Dab-Arg-Tyr] (HELM PEPTIDE1{V.[Hyp].I.T.Y.[Pen].I.R.[Dab].T.[NCC[C@@H](N[*:1])C(=O)[*:2]].[Orn].C.[Dab].R.Y}$PEPTIDE1,PEPTIDE1,6:R3-13:R3$$$V2.0) | 0.125 | 0.0625 | 0.125 | <1 |
| CC[C@H](C)[C@@H]1NC(=O)[C@@H](NC(=O)[C@H](Cc2ccc(O)cc2)NC(=O)[C@@H](NC(=O)[C@@H](NC(=O)[C@@H]2C[C@@H](O)CN2C(=O)[C@@H](N)C(C)C)[C@@H](C)CC)[C@@H](C)O)C(C)(C)SSC[C@@H](C(=O)N[C@@H](CO)C(=O)N[C@@H](CCCNC(=N)N)C(=O)N[C@@H](Cc2ccc(O)cc2)C(=O)O)NC(=O)[C@H](CCCCN)NC(=O)[C@@H](CCN)NC(=O)[C@H]([C@@H](C)O)NC(=O)[C@H](CCN)NC(=O)[C@H](CCCNC(=N)N)NC1=O [Example 104, Val-Hyp-Ile-Thr-Tyr-Pen-Ile-Arg-Dab-Thr-^DDab-Lys-Cys-Ser-Arg-Tyr] (HELM PEPTIDE1{V.[Hyp].I.T.Y.[Pen].I.R.[Dab].T.[NCC[C@@H](N[*:1])C(=O)[*:2]].K.C.S.R.Y}$PEPTIDE1,PEPTIDE1,6:R3-13:R3$$$V2.0) | 0.25 | 0.125 | 0.125 | <1 |
| CC[C@H](C)[C@H](NC(=O)[C@@H]1C[C@@H](O)CN1C(=O)[C@@H](N)C(C)C)C(=O)N[C@@H](CCN)C(=O)N[C@@H](Cc1ccc(O)cc1)C(=O)N[C@@H]1C(=O)N[C@@H](CC(N)=O)C(=O)N[C@@H](CCCNC(=N)N)C(=O)N[C@@H](CCN)C(=O)N[C@@H]([C@@H](C)O)C(=O)N[C@H](CCN)C(=O)N[C@@H](CCCCN)C(=O)N[C@H](C(=O)N[C@@H](CCN)C(=O)N[C@@H](CCCN)C(=O)N[C@@H](Cc2ccc(O)cc2)C(=O)O)CSSC1(C)C [Example 89, Val-Hyp-Ile-Dab-Tyr-Pen-Asn-Arg-Dab-Thr-^DDab-Lys-Cys-Dab-Orn-Tyr] (HELM PEPTIDE1{V.[Hyp].I.[Dab].Y.[Pen].N.R.[Dab].T.[NCC[C@@H](N[*:1])C(=O)[*:2]].K.C.[Dab].[Orn].Y}$PEPTIDE1,PEPTIDE1,6:R3-13:R3$$$V2.0) | 0.25 | 0.0625 | 0.0625 | <1 |
| CC[C@H](C)[C@H](NC(=O)[C@@H](NC(=O)[C@@H]1C[C@@H](O)CN1C(=O)[C@@H](N)C(C)C)[C@@H](C)CC)C(=O)N[C@@H](Cc1ccc(O)cc1)C(=O)N[C@@H]1C(=O)N[C@@H](CC(N)=O)C(=O)N[C@@H](CCCNC(=N)N)C(=O)N[C@@H](CCN)C(=O)N[C@@H]([C@@H](C)O)C(=O)N[C@H](CCN)C(=O)N[C@@H](CCCCN)C(=O)N[C@H](C(=O)N[C@@H](CCN)C(=O)N[C@@H](CO)C(=O)N[C@@H](Cc2ccc(O)cc2)C(=O)O)CSSC1(C)C [Example 105, Val-Hyp-Ile-Ile-Tyr-Pen-Asn-Arg-Dab-Thr-^DDab-Lys-Cys-Dab-Ser-Tyr] (HELM PEPTIDE1{V.[Hyp].I.I.Y.[Pen].N.R.[Dab].T.[NCC[C@@H](N[*:1])C(=O)[*:2]].K.C.[Dab].S.Y}$PEPTIDE1,PEPTIDE1,6:R3-13:R3$$$V2.0) | 0.5 | 0.25 | 0.125 | <1 |
| CC[C@H](C)[C@H](NC(=O)[C@@H](NC(=O)[C@@H]1C[C@@H](O)CN1C(=O)[C@@H](N)C(C)C)[C@@H](C)CC)C(=O)N[C@@H](Cc1ccc(O)cc1)C(=O)N[C@@H]1C(=O)N[C@@H](CC(N)=O)C(=O)N[C@@H](CCCNC(=N)N)C(=O)N[C@@H](CCN)C(=O)N[C@@H]([C@@H](C)O)C(=O)N[C@H](CCN)C(=O)N[C@@H]([C@@H](C)CC)C(=O)N[C@H](C(=O)N[C@@H](CCN)C(=O)N[C@@H](CCCNC(=N)N)C(=O)N[C@@H](Cc2ccc(O)cc2)C(=O)O)CSSC1(C)C [Example 87, Val-Hyp-Ile-Ile-Tyr-Pen-Asn-Arg-Dab-Thr-^DDab-Ile-Cys-Dab-Arg-Tyr] (HELM PEPTIDE1{V.[Hyp].I.I.Y.[Pen].N.R.[Dab].T.[NCC[C@@H](N[*:1])C(=O)[*:2]].I.C.[Dab].R.Y}$PEPTIDE1,PEPTIDE1,6:R3-13:R3$$$V2.0) | 0.25 | 0.125 | 0.125 | <1 |
| CC[C@H](C)[C@H](NC(=O)[C@@H]1C[C@@H](O)CN1C(=O)[C@@H](N)C(C)C)C(=O)N[C@H](C(=O)N[C@@H](Cc1ccc(O)cc1)C(=O)N[C@@H]1C(=O)N[C@@H](CC(N)=O)C(=O)N[C@@H](CCCNC(=N)N)C(=O)N[C@@H](CCN)C(=O)N[C@@H]([C@@H](C)O)C(=O)N[C@H](CCN)C(=O)N[C@@H](CCCCN)C(=O)N[C@H](C(=O)N[C@@H](CCN)C(=O)N[C@@H](CCCNC(C)C)C(=O)N[C@@H](Cc2ccc(O)cc2)C(=O)O)CSSC1(C)C)[C@@H](C)O [Example 136, Hyp-Ile-Thr-Tyr-Pen-Asn-Arg-Dab-Thr-^DDab-Lys-Cys-Dab-Orn(iPr)-Tyr] (HELM PEPTIDE1{V.[Hyp].I.T.Y.[Pen].N.R.[Dab].T.[NCC[C@@H](N[*:1])C(=O)[*:2]].K.C.[Dab].[CC(C)NCCC[C@H](N[*:1])C(=O)[*:2]].Y}$PEPTIDE1,PEPTIDE1,6:R3-13:R3$$$V2.0) | 0.5 | 0.125 | 0.25 | <1 |
| CC[C@H](C)[C@H](NC(=O)[C@@H]1C[C@@H](OC)CN1C(=O)[C@@H](N)C(C)C)C(=O)N[C@H](C(=O)N[C@@H](Cc1ccc(O)cc1)C(=O)N[C@@H]1C(=O)N[C@@H](CC(N)=O)C(=O)N[C@@H](CCCNC(=N)N)C(=O)N[C@@H](CCN)C(=O)N[C@@H]([C@@H](C)O)C(=O)N[C@H](CCN)C(=O)N[C@@H](CCCCN)C(=O)N[C@H](C(=O)N[C@@H](CCN)C(=O)N[C@@H](CCCNC(=N)N)C(=O)N[C@@H](Cc2ccc(O)cc2)C(=O)O)CSSC1(C)C)[C@@H](C)O [Example 130, Val-Pro((4R)OPh)-Ile-Thr-Tyr-Pen-Asn-Arg-Dab-Thr-^DDab-Lys-Cys-Dab-Arg-Tyr] (H-V[Hyp](Me)ITY[Pen]NR[Dab]T[dDab]KC[Dab]RY-OH; disulfide 6-13) | 0.25 | 0.125 | 0.125 | <1 |
| CC[C@H](C)[C@H](NC(=O)[C@@H](NC(=O)[C@@H]1C[C@@H](N)CN1C(=O)[C@@H](N)C(C)C)[C@@H](C)CC)C(=O)N[C@@H](Cc1ccc(O)cc1)C(=O)N[C@@H]1C(=O)N[C@@H](CC(N)=O)C(=O)N[C@@H](CCCNC(=N)N)C(=O)N[C@@H](CCN)C(=O)N[C@@H]([C@@H](C)O)C(=O)N[C@H](CCN)C(=O)N[C@@H](CCCCN)C(=O)N[C@H](C(=O)N[C@@H](CO)C(=O)N[C@@H](CCCNC(=N)N)C(=O)N[C@@H](Cc2ccc(O)cc2)C(=O)O)CSSC1(C)C [Example 93, Val-Pro((4R)NH2)-Ile-Ile-Tyr-Pen-Asn-Arg-Dab-Thr-^DDab-Lys-Cys-Ser-Arg-Tyr] (HELM PEPTIDE1{V.[N[C@@H]1C[C@@H](C(=O)[*:2])N([*:1])C1].I.I.Y.[Pen].N.R.[Dab].T.[NCC[C@@H](N[*:1])C(=O)[*:2]].K.C.S.R.Y}$PEPTIDE1,PEPTIDE1,6:R3-13:R3$$$V2.0) | 0.25 | 0.25 | 0.0625 | <1 |
| CC[C@H](C)[C@H](NC(=O)[C@@H](NC(=O)[C@@H]1C[C@@H](N)CN1C(=O)[C@@H](N)C(C)C)[C@@H](C)CC)C(=O)N[C@@H](Cc1ccc(O)cc1)C(=O)N[C@@H]1C(=O)N[C@@H](CC(N)=O)C(=O)N[C@@H](CCCNC(=N)N)C(=O)N[C@@H](CCN)C(=O)N[C@@H]([C@@H](C)O)C(=O)N[C@H](CCN)C(=O)N[C@@H]([C@@H](C)CC)C(=O)N[C@H](C(=O)N[C@@H](CCN)C(=O)N[C@H](C(=O)N[C@@H](Cc2ccc(O)cc2)C(=O)O)[C@@H](C)O)CSSC1(C)C [Example 115, Val-Pro((4R)NH2)-Ile-Ile-Tyr-Pen-Asn-Arg-Dab-Thr-^DDab-Ile-Cys-Dab-Thr-Tyr] (HELM PEPTIDE1{V.[N[C@@H]1C[C@@H](C(=O)[*:2])N([*:1])C1].I.I.Y.[Pen].N.R.[Dab].T.[NCC[C@@H](N[*:1])C(=O)[*:2]].I.C.[Dab].T.Y}$PEPTIDE1,PEPTIDE1,6:R3-13:R3$$$V2.0) | 0.5 | 0.5 | 0.125 | <1 |

Reference: US20240228555A9, “ANTIMICROBIAL PEPTIDOMIMETICS” (Basilea Pharmaceutica International AG, Allschwil, priority 2020, published 2024)
